Experimental findings from patent publication US7579370B2, “Fused heterocycles” (Sepracor Inc., priority 2006, dated 2009) are described below.

One test has as its system Sprague-Dawley rats. Nature of the test: Rat Chung model (L5 spinal nerve ligation), paw withdrawal threshold with von Frey hairs. It counts as in vivo. Here is the method:
Adult male Sprague-Dawley rats, weighing 200-230 g at the time of surgery, were used. They were housed in groups of 4 in an air-conditioned room on a 12 h light/dark cycle. Food and water were available ad libitu. The animals were allowed to acclimatize to the experimental environment for three days by leaving them on a lifted metal mesh for at least 40 min. The baseline paw withdrawal threshold (PWT) was examined using a series of graduated von Frey hairs for 3 consecutive days before surgery and re-assessed on the 7th day after surgery and on the 11th to 14th day before drug dosing. The rat Chung model was prepared as described by Kim and Chung (1992). The rat was anaesthetized with 5% isoflurane mixed with oxygen (2 L per min) followed by an i.p. injection of sodium pentobarbitone at 50 mg/kg. The back was shaved and sterilized with 75% ethanol. The animal was placed in a prone position and a para-medial incision was made on the skin covering L4-6 level. The L5 spinal nerve was carefully isolated and tightly ligated with 6/0 silk suture. The wound was then closed in layers after a complete hemostasis. A single dose of antibiotics (Amoxipen 15 mg/rat, ip) was routinely given for prevention of infection after surgery. The animals were placed in a temperature controlled recovery chamber until fully awake before being returned to the home cage. The animals were placed in individual Perspex boxes on a raised metal mesh for at least 40 min before the test. Starting with the filament of lowest force, each filament was applied perpendicularly to the center of the ventral surface of the paw until slightly bent for 6 seconds. If the animal withdrew or lifted the paw upon stimulation, then a hair with force immediately lower than that tested was used. If no response was observed, then a hair with force immediately higher was tested. The lowest amount of force required to induce reliable responses (positive in 3 out of 5 trials) was recorded as the value of PWT. Only those animals with significant allodynia (PWT≦3.5 g) were selected for drug dosing experiments. The rats in a neuropathic pain state were randomly divided into experimental groups: Vehicle group and 1 group had 8 rats and the gabapentin group had 9 rats. The drug test was carried out 12 to 14 days after surgery. Isotonic 50 mM phosphate buffer (PB), dosed orally at 3 mL/kg, served as the vehicle control. Gabapentin was dissolved in normal saline and given orally at 100 mg/kg. […] The PWT was assessed at 1, 3, 6 and 24 h following drug or vehicle administration. The animals were returned to their home cage for a break (about 30 min) between two neighboring testing time points. One-way analysis of variance (ANOVA) (SPSS software) was used for statistical analysis to compare different groups on the same time points. Paired Student -t test was used to compare different time points in the same group. The significance level was set at P<0.05.

Another test deals with Human DAAO (Homo sapiens, UniProt P14920). Briefly: D-Amino Acid Oxidase enzyme assay (D-serine, horseradish peroxidase/Amplex Red coupled). As to conditions: D-serine 5 mM, pH 7.4; read-out: Human DAAO Inhibition [IC50]. The format is biochemical.

For orientation: IC50 means the midpoint of a concentration-inhibition curve.

Human DAAO, sequence (P14920 whole entry): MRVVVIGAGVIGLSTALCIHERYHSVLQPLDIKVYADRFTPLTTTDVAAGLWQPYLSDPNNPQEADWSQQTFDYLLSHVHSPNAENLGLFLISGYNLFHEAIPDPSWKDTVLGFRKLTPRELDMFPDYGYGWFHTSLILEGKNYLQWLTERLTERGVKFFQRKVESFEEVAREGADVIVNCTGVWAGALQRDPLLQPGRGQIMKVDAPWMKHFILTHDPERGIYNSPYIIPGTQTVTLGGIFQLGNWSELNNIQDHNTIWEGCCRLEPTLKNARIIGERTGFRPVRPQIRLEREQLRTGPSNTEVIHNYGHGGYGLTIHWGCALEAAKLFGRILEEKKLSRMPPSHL
Protocol for Human DAAO: This coupled reaction uses the enzyme substrate Amplex Red (Molecular Probes), which is converted to the fluorescent reaction product, resorufin (excitation 530-560 nm; emission ˜590 nm). Although DAAO has a higher pH optimum, all reagents were prepared in 50 mM sodium phosphate buffer at pH 7.4 and inhibition curves were generated at this pH.
The reactions were initiated by addition of DAAO enzyme while the fluorescence was monitored. […] Inhibition curves were generated in the presence of varying concentrations of the inhibitor and IC50 values were calculated for each inhibitor.

Turning to `O=C(O)c1cc2occc2[nH]1` [Compound 11, 4H-Furo[3,2-b]pyrrole-5-carboxylic acid], the “Effect on paw withdrawal threshold (PWT)” value with Sprague-Dawley rats (oral dose of 10 mg/kg) is recorded as “significantly elevated the PWT”.

Regarding `O=C(O)c1cc2occ(CCc3ccccc3)c2[nH]1` [Compound 17, 3-phenethyl-4H-furo[3,2-b]pyrrole-5-carboxylic acid], the IC50 at Human DAAO was less than 1 µM.

Turning to `O=C(O)c1cc2oc(Cc3ccccc3)cc2[nH]1` [Compound 24, 2-benzyl-4H-furo[3,2-b]pyrrole-5-carboxylic acid], on Human DAAO, the IC50 was less than 100 µM.

Regarding `O=C(O)c1cc2occ(Cc3ccccc3)c2[nH]1` [Compound 26, 3-benzyl-4H-furo[3,2-b]pyrrole-5-carboxylic acid], the IC50 on Human DAAO was less than 100 µM.

As for `C=Cc1coc2cc(C(=O)O)[nH]c12` [Compound 32, 3-vinyl-4H-furo[3,2-b]pyrrole-5-carboxylic acid], the IC50 at Human DAAO is less than 0.1 µM.

`C/C=C\c1coc2cc(C(=O)O)[nH]c12` [Compound 46, (Z)-3-(prop-1-enyl)-4H-furo[3,2-b]pyrrole-5-carboxylic acid]: the IC50 at Human DAAO is less than 100 µM.

Regarding `O=C(O)c1cc2occ(/C=C/c3ccccc3)c2[nH]1` [Compound 48, (E)-3-Styryl-4H-furo[3,2-b]pyrrole-5-carboxylic acid], the IC50 at Human DAAO is less than 100 µM.

Turning to `NCC1(CC(=O)O)CCCCC1` [Gabapentin], in the test on Sprague-Dawley rats (orally dosed at 100 mg/kg), the “Course of the effect on PWT after the peak” value was “gradually declined from 6 hours onwards”, the “Time at which the effect on PWT commenced after dosing” value was “first hour” and the “Time of peak effect on PWT after dosing” value is 3 h. Besides, the “Effect on paw withdrawal threshold (PWT)” value with Sprague-Dawley rats (orally dosed at 100 mg/kg, positive control) is recorded as “significantly increased the PWT”.
